Reference: patent US12226396B2, “Gluconic acid derivatives for use in the treatment and/or prevention of microbial infections” (GEDEA BIOTECH AB, priority 2017, dated 2025)

Tests used:
[1] = system: Gardnerella vaginalis CCUG 3717; experiment: MIC microdilution test; format: cell-based; settings: CAMHB, 48 hours, 5% CO2
Method: (§1) Gardnerella vaginalis, Lactobacillus iners, and Lactobacillus crispatus were recovered by CCUG (Culture Collection of University of Gothenburg). Subculture plates were made for G. vaginalis on Chocolate-GL plates and Lactobacillus spp. on M.R.S. agar plates at 5% CO2, 36° C. The inoculums were prepared from the subculture plates. Colonies were inoculated to culture tubes with 5 ml test medium and vortexed 2 min with about 10 glass beads a 3 mm in diameter. Colonies were taken until the turbidity of the solution was OD475 of 0.4-0.5. The bacterial solutions were checked in light microscopy at ×40 with phase contrast to make sure that the cells were dispersed. Each bacterial suspension was diluted in its test medium, 1:100, to equal 1-3×10^6 CFU/ml. The microbial solutions were stored at 20° C. during the preparation of the inoculums
(§2) The test substance solution was prepared aseptically at 1 g/ml in sterile H2O. The first row of wells was filled with 100 μl substance and then 2 fold dilutions were done vertically in 8 steps.
(§3) Next, 100 μl microorganisms were added and the plates were gently shaken at 500 rpm for 30 seconds before incubation at 35° C. and 90% RH in the CO2 incubator set at 5% CO2. After 48 and 72 hours of incubation, the OD was measured and ocular assessments were done. The pH was also measured for all dilutions, n=1, pH=6.8-7.1

[2] = system: Lactobacillus crispatus CCUG 44128; experiment: MIC microdilution test; format: cell-based; settings: IsoS-M.R.S., 48 hours, 5% CO2
Method: as §1, §2, §3

Escherichia coli K12 = experiment: E. coli biofilm study in M9 medium (crystal violet); format: cell-based
Method: The bacterial strain Escherichia coli K12 was used for the biofilm study. This strain was maintained on LB medium at 37° C. The biofilm was studied in synthetic medium M9 (×1 M9 minimal salts (Sigma M6030), 2 mM MgSO4, 0.1 mM CaCl2, and 0.2% glucose), which contained either phosphate buffer, citric acid, lactic acid, gluconic acid or glucono-O-lactone to obtain media with different pH (2.6-6.6).
The overnight culture of E. coli K12 (OD600˜5.0) was washed with sterile water and inoculated to the final concentration 0.2 OD/ml of M9 medium with different pH of different compounds. The biofilm development was studied in 96-well flat-bottom polystyrene microtiter plates (Sigma Aldrich, Corning® Costar® culture plates, CLS3596-50EA). The biofilm was stained with crystal violet.

[3] = system: Lactobacillus iners CCUG 44025; experiment: MIC microdilution test; format: cell-based; settings: CAMHB, anaerobic conditions, 120 hours
Method: as §1, §2
The pH was also measured for all dilutions, n=1, pH=6.8-7.1

[4] = system: Acetinobacter baumanii CCUG 57035; experiment: MIC microdilution test; format: cell-based; settings: CCUG 57035, aerobic
Method: (§4) The test substance solution was prepared aseptically at 1 g/ml in sterile H2O. […] After 48 and 72 hours of incubation, the OD was measured and ocular assessments were done. […] All strains were recovered from microbanks and streak and subculture plates were made. The aerobes on TSA plates, the fastidious aerobes on horse blood plates and the anaerobe on FAA plates. […] At the time of testing, loopfuls of colonies selected from 18- to 24-hour agar plates for the aerobes and fastidious aerobes were suspended in 5 ml saline in 10 ml tubes containing 10 glass beads a 3 mm in diameter. […] The cell suspensions were then vortexed vigorously for 1 minute to obtain a turbid suspension. Each suspension of the aerobes and fastidious aerobes was adjusted to equal OD 0.28 at 475 nm using a spectrophotometer, which correlates approximately to 1-3×10^8 CFU/ml with most species. For the anaerobe, the OD measurement turned out to be difficult due to the use of blood in the culture medium. […] The aerobes and fastidious aerobes were further diluted in saline 10 times so that the inoculum concentration equaled to […]. The anaerobe was not diluted but used directly as is. The different aerobic and fastidious aerobic bacterial suspensions were transferred to respective wells of a 96 well plate. A. baumannii, E. coli, and P. aeruginosa were placed in one row, the Staphylococci spp. were placed in a second row, and the fastidious aerobes were placed in a third row of the plate. The anaerobe was transferred from a 25 ml multichannel pipette reservoir. The Microdilution Preparations and the MIC tests were performed as in example 13.

[5] = system: Beta-Hemolytic Streptococci Groups C Streptococcus dysgalactiae ss equisimilis CCUG 4211; experiment: MIC microdilution test; format: cell-based; settings: CCUG 4211, 5% CO2
Method: as §4

[6] = system: Escherichia coli CCUG 3274/ATCC 10536; experiment: MIC microdilution test; format: cell-based; settings: CCUG 3274, aerobic
Method: as §4

[7] = system: Staphylococcus epidermidis CCUG 23118; experiment: MIC microdilution test; format: cell-based; settings: CCUG 23118, aerobic
Method: as §4

[8] = system: Beta-Hemolytic Streptococci Groups G Streptococcus dysgalactiae ss equisimilis CCUG 7975; experiment: MIC microdilution test; format: cell-based; settings: CCUG7975, 5% CO2
Method: as §4

[9] = system: Staphylococcus aureus CCUG 15915/ATCC 29213; experiment: MIC microdilution test; format: cell-based; settings: CCUG 15915, aerobic
Method: as §4

[10] = system: Streptococcus pyogenes CCUG 47803/ATCC 700294; experiment: MIC microdilution test; format: cell-based; settings: CCUG 47803, 5% CO2
Method: as §4

[11] = system: Pseudomonas aeruginosa (PAO1) CCUG 56489/ATCC 15692; experiment: MIC microdilution test; format: cell-based; settings: CCUG 56489, aerobic
Method: as §4

[12] = system: Streptococcus agalactiae CCUG 29376; experiment: MIC microdilution test; format: cell-based; settings: CCUG 29376, 5% CO2
Method: as §4

C. glabrata = experiment: Viability of mature biofilm, XTT assay; format: cell-based, Candida glabrata; settings: 24 h of incubation with GDA
Method: XXT is a colorimetric assay for quantification of cellular viability, and cytotoxicity. The assay is based on the cleavage of the tetrazolium salt XTT, a conversion that only occurs in viable cells. […] Then the cells were washed 2 times with PBS, after which the XTT reaction mixture was added. After 30 min the optical density measured at 485 nm.

C. albicans = experiment: Microfluidics study of biofilm development (cell morphology); format: cell-based, Candida albicans; settings: 1 h hydrolysate of 2.5 g pellet diluted 50 times, after 5 h
Method: To monitor the C. albicans cell morphology we studied the biofilm development also using microscopy and microfluidics. After the yeast cells were inoculated, hyphae started to form within first hour of incubation in the biofilm medium (YNB supplemented with 100 mM proline and 0.2% glucose, pH7.0). […] A sample was taken after 1 h and diluted 50 times with biofilm medium and added to C. albicans.

- MIC (g/ml) [1]: 0.001 g/ml
- MIC (g/ml) [2]: 0.0078 g/ml
- MIC (g/ml) [3]: 0.0078 g/ml
- MIC (g/ml) [4]: 0.0031 g/ml
- MIC (g/ml) [6]: 0.0063 g/ml
- MIC (g/ml) [7]: 0.0031 g/ml
- MIC (g/ml) [9]: 0.0063 g/ml
- MIC (g/ml) [10]: 0.0031 g/ml
- MIC (g/ml) [11]: 0.0031 g/ml
SMILES: O=C1O[C@H](CO)[C@@H](O)[C@H](O)[C@H]1O [GDA, glucono-δ-lactone]
- effect on growth (biomass) (Escherichia coli K12; M9 medium, 24-48 hours): inhibiting effect on the growth
- decrease of biofilm formation (Escherichia coli K12; pH 2.6, 24 h): 14.2 times
- decrease of biofilm formation (Escherichia coli K12; pH 2.6, 48 h): 30 times
- MIC (g/ml) [5]: 0.0016 g/ml
- MIC (g/ml) [8]: 0.0031 g/ml
- MIC (g/ml) [12]: 0.0031 g/ml
- decrease in viability of mature biofilm (XTT) (C. glabrata): strong decrease in viability
- cell morphology (C. albicans): most treated cells were planctonic
